Assays:
[1] = test system: C8161 aggressive melanoma cells; test: VM network formation in three-dimensional MATRIGEL, C8161 cells; assay type: cell-based, human; conditions: for VM network formation: all tested concentrations
Experimental: (§1) Aggressive human melanoma (C8161 or SK-MEL28; 1×10^5) cells were seeded into a three-dimensional polymerized MATRIGEL™ (75 μl) for VM network analysis. C8161 or SK-MEL28 cells were treated for 24 h with 0.5, 1, 5, 10, 25 or 50 or 100 nM of TRX-818 at 5 or 24 h after cell attachment. Another set of melanoma cells were seeded onto a plastic dish and treated for the same amount of time before the cell viability of C8161 or SK-MEL28 cells was determined using the Guava Nexin Assay (Millipore, USA).
(§2) The VM network image was taken using a confocal laser scanning microscope equipped with an environmental, chamber to track the response of cancer cells to the test compound. The images were then digitized and subsequently analyzed using the Angiosys software. Four images per sample were analyzed to quantify the number of junctions and total tubule length of VM formation. Changes were presented in percentage relative to the vehicle control. Sterile deionized water (tissue-culture grade) was used as the vehicle control.
(§3) Aggressive human melanoma (C8161, 7.5×10^4) cells were seeded as disclosed in Example 1. C8161 cells were treated tor 4 h or 24 h with 0.3, 1 or 5 nM of TRX-818M1. Another set of melanoma cells were seeded onto a plastic dish and treated for the same amount of time before the cell viability of C8161 cells was determined.

[2] = test system: SK-MEL-28 aggressive human melanoma cells; test: Loss of pre-formed VM network in SK-MEL-28 cells on MATRIGEL; assay type: cell-based; conditions: 100 nM
Experimental: TRX-818 M1 (i.e., compound No. 38) structurally similar compounds were tested for their effect on inhibition of vasculogenic mimicry. Aggressive human melanoma (SK-MEL-28 from ATCC®; 7.5×10^4 mL medium) cells were seeded onto a three-dimensional polymerized MATRIGEL™-coated 24-well plate. After 18 h of cell seeding, VM network was formed. The medium was then replaced with negative controls (untreated and DMSO treated controls), a positive control (100 nM of TRX-818M1) or 100 nM of each testing compound.

[3] = test system: HCT-116 orthotopic human colon cancer xenograft; test: HCT-116 orthotopic human colon cancer xenograft model; assay type: in vivo, mice; conditions: for animals found dead prior to study termination: ten mice/group
Experimental: The inhibitory effect of TRX-818 on tumor growth and VM formation of HCT-116, a highly metastatic colon tumor, was examined in a HCT-116 orthotopic xenograft model. The effect of TRX-818 was evaluated on the formation of the vascular or vascular-like (vasculogenic mimicry, VM) network by immunohistochemistry staining (IHC) in orthotopic xenograft human colon cancer model inoculated with HCT116 colon cancer cell lines
Six groups were set in this study (ten mice/group). There were: Group 1, TRX-818 at 20 mg/kg given as oral administration; Group 2, TRX-818 at 50 mg/kg given as oral administration; Group 3, TRX-818 at 100 mg/kg given as oral administration; Group 4, TRX-818 at 20 mg/kg given as intravenous injection; Group 5, Irinotecan at 50 mg/kg given as intraperitoneal injection; Group 6, vehicle group. Dose schedule for G1, G2, G3 and G6 was QD×28 and for G4 was QOD×7. Body weights were monitored for safety evaluation. Tumor size and tumor weight were measured at the end of in-life study. The percentage of tumor growth inhibition (TGI %) was calculated at the termination of the study for anti-tumor effect evaluation. The average body weight of study mice on Day 1 was ˜20 gram and decreased to ˜17-19 gram at the end of study (Day 42)
At the end of 28-day dosing, CO2 anesthesia (1 min) followed by cervical dislocation was used for mice euthanasia in the study prior to tumors and lungs excision. First, a ventral midline incision was made and colon with primary tumor was excised and collected. The tumor collection was completed in 3 minutes after euthanasia. The tissues were rinsed with PBS to remove the blood before fixation.
The number of channels with CD31^+/red blood cell (RBC)^+ or CD31^−/RBC^+ were counted on the whole section of each sample in each group, and the number of vessels with CD31 positive or negative staining were counted based on 5 light fields (200×) under microscope. The vascular network represented by the CD31^+/RBC^+ staining whereas the VM network represented by CD31^−/RBC^+ staining, because the VM formation is independent of vascular endothelial cells. The scoring was conducted by blinded, objective observer.

[4] = test system: SK-MEL28 cancer cells; test: VM network formation in three-dimensional MATRIGEL, SK-MEL28 cells; assay type: cell-based, human; conditions: 24 h treatment
Experimental: as §1, §2

[5] = test system: Notch4 intracellular domain (Notch 4 ICD); test: qRT-PCR mRNA level of Notch4 ICD in C8161 cells; assay type: cell-based, human; conditions: 10 nM
Experimental: (§4) To determine whether TRX-818 reduced the VM network formation by altering the levels of the essential proteins for VM, its effect on Nodal, Notch4, VE-cadherin (CDHE5) or ephrin receptor A2 (Eph A2) expression was determined using qRT-PCR. 2×10^6 of aggressive human melanoma (C8161) cells were treated with 10 nM TRX-818 for 8, 24, 48, or 72 h. Sterile deionized water (tissue-culture grade) was used as vehicle.

[6] = test system: Aggressive human melanoma (C8161 or SK-MEL28) cells; test: Quantification of number of junctions and total tubule length of VM formation (Angiosys); assay type: cell-based
Experimental: as §1, §2

[7] = test system: phosphorylated Smad2 (P-Smad2); test: Immunoblotting of phosphorylated Smad2 in C8161 cells; assay type: cell-based, human; conditions: 10 nM
Experimental: (§5) To further understand how TRX-818 alters the signaling pathways required for VM network formation, the protein levels of Pro-Nodal, Smad2, and phosphorylated Smad2 (P-Smad2) were determined using immunoblotting analysis. On the day of study, TRX-818 was prepared as described in Example 1, C8161 cells were untreated (control) or treated with 10 nM TRX-818 for 1, 4, 8, and 24 h. Protein expression of Nodal and total Smad2, and P-Smad2 was analyzed by immunoblotting analysis, 5×10^6 aggressive human melanoma (C8161) cells were seeded onto a plastic dish in the presence of 10 nM TRX-818, and total proteins were collected for analysis. To quantify the protein levels of Nodal and P-Smad2, 40 μg and 25 μg of total proteins were used for SDS-PAGE and immunoblotting, respectively. The protein level of β-actin was used for normalization to assure equal protein loading.

[8] = test system: VE-cadherin (CDH5); test: qRT-PCR mRNA level of CDH5 in C8161 cells; assay type: cell-based, human; conditions: 10 nM
Experimental: as §4

[9] = test system: Nodal; test: qRT-PCR mRNA level of Nodal in C8161 cells; assay type: cell-based, human; conditions: 10 nM
Experimental: as §4

[10] = test system: Smad2; test: Immunoblotting of total Smad2 in C8161 cells; assay type: cell-based, human; conditions: 10 nM
Experimental: as §5

[11] = test system: Pro-Nodal; test: Immunoblotting of Pro-Nodal protein in C8161 cells; assay type: cell-based, human; conditions: 10 nM
Experimental: as §5

[12] = test system: C8161 cells; test: Cell viability of C8161 cells (Guava Nexin Assay); assay type: cell-based; conditions: higher concentrations in the nM range
Experimental: as §1, §3

## O=c1cc(-c2ccccc2F)[nH]c2cc3c(cc12)OCO3 [CHM-2133, 2-(2-fluorophenyl)-6,7-methylenedioxyquinolin-4-one]
[1]
  concentration effective as vascular disrupting agent: ~0.3 nM
  VM network formation: inhibited

## COc1cc2c(cc1O)N=C(c1ccccc1F)CC2=O [Compound 43, 2-(2-Fluorophenyl)-7-hydroxy-6-methoxyquinolin-4-one]
[2]; 5 h post treatment
  loss of VM network compared to negative controls: mild loss of VM network
[2]; 24 h post treatment
  loss of VM network compared to negative controls: marked loss of VM network

## COc1ccc2[nH]c(-c3cccc(F)c3)cc(=O)c2c1OP(=O)(O)O [Compound 52, 2-(3-Fluorophenyl)-6-methoxy-4-oxo-1,4-dihydroquinolin-5-yl dihydrogen phosphate]
[2]; 5 h post treatment
  loss of VM network compared to negative controls: mild loss of VM network
[2]; 24 h post treatment
  loss of VM network compared to negative controls: marked loss of VM network

## O=c1cc(-c2cccc(OP(=O)(O)O)c2)[nH]c2ccc(N3CCCC3)cc12 [Compound 147, 3-(4-Oxo-6-(pyrrolidin-1-yl)-1,4-dihydroquinolin-2-yl)phenyl dihydrogen phosphate]
[2]; 5 h post treatment
  loss of VM network compared to negative controls: mild loss of VM network
[2]; 24 h post treatment
  loss of VM network compared to negative controls: marked loss of VM network

## O=c1cc(-c2cccc(F)c2)[nH]c2cc3c(cc12)OCO3 [Compound A6]
[2]; 5 h post treatment
  loss of VM network compared to negative controls: mild loss of VM network
[2]; 24 h post treatment
  loss of VM network compared to negative controls: marked loss of VM network

## O=c1cc(-c2cccc(Cl)c2)[nH]c2ccc3c(c12)OCO3 [Compound B1]
[2]; 5 h post treatment
  loss of VM network compared to negative controls: mild loss of VM network
[2]; 24 h post treatment
  loss of VM network compared to negative controls: marked loss of VM network

## COc1cccc(-c2cc(=O)c3c(O)c(OC)ccc3[nH]2)c1 [Compound B3]
[2]; 5 h post treatment
  loss of VM network compared to negative controls: mild loss of VM network
[2]; 24 h post treatment
  loss of VM network compared to negative controls: marked loss of VM network

## CN(C)c1ccc2[nH]c(-c3cc(O)cc(F)c3)cc(=O)c2c1 [Compound C4]
[2]; 5 h post treatment
  loss of VM network compared to negative controls: mild loss of VM network
[2]; 24 h post treatment
  loss of VM network compared to negative controls: marked loss of VM network

## O=c1cc(-c2cc(O)cc(F)c2)[nH]c2ccc(N3CCCC3)cc12 [Compound C6]
[2]; 5 h post treatment
  loss of VM network compared to negative controls: mild loss of VM network
[2]; 24 h post treatment
  loss of VM network compared to negative controls: marked loss of VM network

## CCc1c2c(nc3ccc(OC(=O)N4CCC(N5CCCCC5)CC4)cc13)-c1cc3c(c(=O)n1C2)COC(=O)[C@]3(O)CC [Irinotecan, reference compound]
[3]; 50 mg/kg Q4D×3, i.p.
  Average number of channels (CD31−/RBC+, VM) in the whole tumor section per group, Mean ± SEM: 1.1 ± 0.4

## COc1ccc2[nH]c(-c3cccc(F)c3)cc(=O)c2c1OP(=O)(O)O [TRX-818, 2-(3-fluorophenyl)-6-methoxy-4-oxo-1,4-dihydroquinolin-5-yl phosphate]
[4]
  concentration at which VM network formation was inhibited: 5 to 10 nM
[5]; 8 hours
  decrease of Notch4 ICD mRNA level compared to control: 75%
[5]; Homo sapiens, 72 h, read-out: Notch4 ICD mRNA level remaining, % of control cells
  mrna remaining at 0.01 µM: 50%
[6]; 1 nM
  No. of junctions, relative to vehicle control: −16.5%
  Total tubule length, relative to vehicle control: −15.1%
[6]; 5 nM
  No. of junctions, relative to vehicle control: −43.1%
  Total tubule length, relative to vehicle control: −23.3%
  maximal reduction of cell junctions: 43%
[6]; 10 nM
  No. of junctions, relative to vehicle control: −35.9%
  Total tubule length, relative to vehicle control: −26.0%
[6]; 50 nM
  No. of junctions, relative to vehicle control: −42.9%
  Total tubule length, relative to vehicle control: −47.5%
  maximal reduction of total tubule length: 48%
[7]; 1 hour
  P-Smad2/Smad2 post-treatment protein level (relative to untreated control cells): −33%
  P-Smad2 post-treatment protein level (relative to untreated control cells): −4%
[7]; 4 hours
  P-Smad2/Smad2 post-treatment protein level (relative to untreated control cells): −60%
  P-Smad2 post-treatment protein level (relative to untreated control cells): −57%
[7]; 8 hours
  P-Smad2/Smad2 post-treatment protein level (relative to untreated control cells): −40%
  P-Smad2 post-treatment protein level (relative to untreated control cells): −39%
[7]; 24 hours
  P-Smad2/Smad2 post-treatment protein level (relative to untreated control cells): −76%
  P-Smad2 post-treatment protein level (relative to untreated control cells): −73%
[8]; 8 hours
  decrease of CDH5 mRNA level compared to control: 70%
[8]; Homo sapiens, 72 hours, read-out: CDH5 mRNA level remaining, % of control cells
  mrna remaining at 0.01 µM: 50%
[9]; 8 hours
  decrease of Nodal mRNA level compared to control: 80%
[9]; Homo sapiens, 72 h, read-out: Nodal mRNA level remaining, % of control cells
  mrna remaining at 0.01 µM: 70%
[1]; 24 h treatment
  concentration at which VM network formation was inhibited: 5 to 10 nM
[10]; 1 hour
  Smad2 post-treatment protein level (relative to untreated control cells): +43%
[10]; 4 hours
  Smad2 post-treatment protein level (relative to untreated control cells): +9%
[10]; 8 hours
  Smad2 post-treatment protein level (relative to untreated control cells): +3%
[10]; 24 hours
  Smad2 post-treatment protein level (relative to untreated control cells): +13%
[3]; 20 mg/kg QOD group (intravenous)
  animals found dead prior to study termination: two
[3]; 50 mg/kg QD group
  animals found dead prior to study termination: one
[3]; 50 mg/kg oral QD×28, Day 43 post tumor inoculation
  reduction of tumor volume compared to the vehicle group: 49%
[3]; 100 mg/kg QD×28, p.o.
  Average number of channels (CD31−/RBC+, VM) in the whole tumor section per group, Mean ± SEM: 0.8 ± 0.3
[3]; orally administered
  MED (Minimum Effective Dose): 50 mg/kg
[11]; 24 h
  decrease in Pro-Nodal protein level vs control cells: 63%
[11]; four to eight hours
  decrease in Pro-Nodal protein level vs control cells: 28%
[11]; one hour
  decrease in Nodal protein expression (detected as Pro-Nodal) vs control cells: 4%

## COc1ccc2[nH]c(-c3cccc(F)c3)cc(=O)c2c1O [TRX-818M1, 2-(3-Fluorophenyl)-5-hydroxy-6-methoxyquinolin-4-one]
[2]; 5 h post treatment
  loss of VM network compared to negative controls: mild loss of VM network
[2]; 24 h post treatment
  loss of VM network compared to negative controls: marked loss of VM network
[12]
  cell death: induced cell death
[1]
  concentration effective as vascular disrupting agent: ~0.3 nM
  VM network formation: inhibited

From patent US9717721B2, “Use of aryl-quinolin derivatives as inhibitors of vasculogenic mimicry” (TaiRx Inc., priority 2015, dated 2017)
